The source of these data is US8802700B2 (Vertex Pharmaceuticals Incorporated, priority 2010, dated 2014).

The target of the assay is T1, ΔF508-CFTR (Homo sapiens, UniProt P13569, DEL508-508).
T1 construct: expressed in transfected cells
In words: Membrane potential optical assay (FRET voltage-sensor dyes, VIPR), identification of potentiator compounds. In kind it is cell-based. The conditions noted are these: Table 3, assay not given; for Emax: read-out: % Activity (% Efficacy, relative efficacy). The procedure, abridged:
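NIH3T3 mouse fibroblasts stably expressing ΔF508-CFTR, cultured 24 h at 27 °C, were loaded with FRET voltage dyes CC2-DMPE and DiSBAC2(3). Double-addition format: first addition of Cl⁻-free (gluconate) medium with or without compound; membrane-potential change read as fluorescence on VIPR II.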

Some results are limits rather than exact numbers.

T1 sequence (P13569 with tags, fused parts or gaps DEL508-508): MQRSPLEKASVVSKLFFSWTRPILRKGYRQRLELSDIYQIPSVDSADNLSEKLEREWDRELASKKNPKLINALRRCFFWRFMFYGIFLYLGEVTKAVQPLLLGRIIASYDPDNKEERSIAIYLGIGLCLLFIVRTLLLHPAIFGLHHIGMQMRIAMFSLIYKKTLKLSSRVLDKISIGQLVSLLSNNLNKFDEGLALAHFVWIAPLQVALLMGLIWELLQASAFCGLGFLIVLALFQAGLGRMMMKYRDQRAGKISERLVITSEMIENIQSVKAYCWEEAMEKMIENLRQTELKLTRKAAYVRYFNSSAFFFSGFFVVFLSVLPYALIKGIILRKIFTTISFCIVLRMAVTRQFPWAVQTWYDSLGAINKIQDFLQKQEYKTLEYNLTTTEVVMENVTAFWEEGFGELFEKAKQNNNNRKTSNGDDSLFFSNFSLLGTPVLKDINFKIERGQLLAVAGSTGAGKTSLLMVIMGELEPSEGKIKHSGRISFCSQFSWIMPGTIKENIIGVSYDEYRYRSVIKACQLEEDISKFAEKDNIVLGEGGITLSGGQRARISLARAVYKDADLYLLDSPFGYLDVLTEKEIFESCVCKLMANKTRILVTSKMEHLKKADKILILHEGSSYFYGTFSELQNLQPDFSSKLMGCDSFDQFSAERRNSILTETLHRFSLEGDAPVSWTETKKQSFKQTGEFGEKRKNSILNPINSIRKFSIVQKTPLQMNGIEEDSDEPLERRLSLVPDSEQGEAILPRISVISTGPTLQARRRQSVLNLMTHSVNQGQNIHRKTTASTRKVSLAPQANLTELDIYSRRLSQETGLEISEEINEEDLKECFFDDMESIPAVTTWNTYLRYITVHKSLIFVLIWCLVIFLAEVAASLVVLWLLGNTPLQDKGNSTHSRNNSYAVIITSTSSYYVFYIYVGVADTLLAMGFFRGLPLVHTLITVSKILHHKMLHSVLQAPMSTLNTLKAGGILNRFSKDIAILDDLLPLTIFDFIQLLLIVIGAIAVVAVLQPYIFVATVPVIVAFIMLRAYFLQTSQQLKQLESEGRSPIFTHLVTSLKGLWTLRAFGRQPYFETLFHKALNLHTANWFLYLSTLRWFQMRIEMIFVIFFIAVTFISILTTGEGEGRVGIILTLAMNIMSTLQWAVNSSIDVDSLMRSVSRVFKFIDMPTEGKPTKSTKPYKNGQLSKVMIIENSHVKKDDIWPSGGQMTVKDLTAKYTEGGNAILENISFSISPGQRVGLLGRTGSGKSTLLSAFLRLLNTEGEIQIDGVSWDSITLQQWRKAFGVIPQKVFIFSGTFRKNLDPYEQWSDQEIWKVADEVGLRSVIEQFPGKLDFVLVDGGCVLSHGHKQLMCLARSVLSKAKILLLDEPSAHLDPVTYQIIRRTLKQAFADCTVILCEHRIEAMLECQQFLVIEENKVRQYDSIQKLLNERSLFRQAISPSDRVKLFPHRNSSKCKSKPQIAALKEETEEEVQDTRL

As for `O=C(Nc1ccc2c(c1)OC(F)(F)C(F)(F)O2)c1c[nH]c2ccccc2c1=O` [Compound 440, N-(2,2,3,3-tetrafluoro-2,3-dihydrobenzo[b][1,4]dioxin-6-yl)-1,4-dihydro-4-oxoquinoline-3-carboxamide], the Emax was 25 to 100%.

`CS(=O)(=O)Nc1cc(NC(=O)c2c[nH]c3ccccc3c2=O)cc(C(F)(F)F)c1` [Compound 441, N-[3-methylsulfonylamino-5-(trifluoromethyl)phenyl]-4-oxo-1H-quinoline-3-carboxamide]: the EC50 was less than 10 µM and the Emax fell in the range of 25 to 100%.

As to `O=C(Nc1cccc(S(=O)(=O)N2CCCCC2)c1)c1c[nH]c2ccccc2c1=O` [Compound 442, 4-oxo-N-[3-(1-piperidylsulfonyl)phenyl]-1H-quinoline-3-carboxamide], the Emax is less than 25%.

On to `O=C(Nc1ccc2nccnc2c1)c1c[nH]c2ccccc2c1=O` [Compound 443, 4-oxo-N-quinoxalin-6-yl-1H-quinoline-3-carboxamide], for which the Emax is less than 25%.

With `COC(=O)c1cc(NC(=O)c2c[nH]c3ccccc3c2=O)ccc1C(C)(C)C` [Compound 444, 5-[(4-oxo-1H-quinolin-3-yl)carbonylamino]-2-tert-butyl-benzoic acid methyl ester], the Emax is 25 to 100%.

In the case of `C=C(C)c1ccccc1NC(=O)c1c[nH]c2ccccc2c1=O` [Compound 445, N-(2-isopropenylphenyl)-4-oxo-1H-quinoline-3-carboxamide], the Emax is greater than 100%.

For the compound `O=C(Nc1ccc2c(c1)S(=O)(=O)C=C2)c1c[nH]c2ccccc2c1=O` [Compound 446, N-(1,1-dioxobenzothiophen-6-yl)-4-oxo-1H-quinoline-3-carboxamide], the Emax was less than 25%.

In the case of `N#Cc1cccc(NC(=O)c2c[nH]c3ccccc3c2=O)c1` [Compound 447, N-(3-cyanophenyl)-4-oxo-1H-quinoline-3-carboxamide], the Emax was in the range of 25 to 100%.

Take `CC(C)(C)c1ccc(NC(=O)c2c[nH]c3ccccc3c2=O)cc1` [Compound 448, 4-oxo-N-(4-tert-butylphenyl)-1H-quinoline-3-carboxamide]: the Emax lay in the range of 25 to 100%.

In the case of `Cc1cccc(NC(=O)c2c[nH]c3ccccc3c2=O)c1` [Compound 449, N-(m-tolyl)-4-oxo-1H-quinoline-3-carboxamide], the Emax lay within 25 to 100%.

Regarding `CC(O)c1ccc(NC(=O)c2c[nH]c3ccccc3c2=O)cc1` (stereo not shown) [Compound 450, N-[4-(1-hydroxyethyl)phenyl]-4-oxo-1H-quinoline-3-carboxamide], the Emax lay within 25 to 100%.

Consider `CCc1cc(C#N)ccc1NC(=O)c1c[nH]c2ccccc2c1=O` [Compound 451, N-(4-cyano-2-ethyl-phenyl)-4-oxo-1H-quinoline-3-carboxamide], for which the Emax fell in the range of 25 to 100%.

As for `C=Cc1ccc(NC(=O)c2c[nH]c3ccccc3c2=O)cc1` [Compound 452, 4-oxo-N-(4-vinylphenyl)-1H-quinoline-3-carboxamide], the Emax lay within 25 to 100%.

For `Nc1cc(NC(=O)c2c[nH]c3ccccc3c2=O)ccc1Cl` [Compound 453, N-(3-amino-4-chloro-phenyl)-4-oxo-1H-quinoline-3-carboxamide], the Emax fell in the range of 25 to 100%.

For `Cc1ccc(-c2ccccc2)cc1NC(=O)c1c[nH]c2ccccc2c1=O` [Compound 454, N-(2-methyl-5-phenyl-phenyl)-4-oxo-1H-quinoline-3-carboxamide], the Emax is less than 25%.

Turning to `O=C(Nc1ccc(C23CC4CC(CC(C4)C2)C3)cc1)c1c[nH]c2ccccc2c1=O` [Compound 455, N-[4-(1-adamantyl)phenyl]-4-oxo-1H-quinoline-3-carboxamide], the Emax is 25 to 100%.

For `O=C(Nc1cccc(SC(F)(F)F)c1)c1c[nH]c2ccccc2c1=O` [Compound 456, 4-oxo-N-[3-(trifluoromethylsulfanyl)phenyl]-1H-quinoline-3-carboxamide], the Emax is 25 to 100%.

With `O=C(Nc1ccc(N2CCOCC2)cc1)c1c[nH]c2ccccc2c1=O` [Compound 457, N-(4-morpholinophenyl)-4-oxo-1H-quinoline-3-carboxamide], the Emax was less than 25%.

With `CC(C)(C)c1ccc(NC(=O)c2c[nH]c3ccccc3c2=O)cc1OCCO` [Compound 458, N-[3-(2-hydroxyethoxy)-4-tert-butyl-phenyl]-4-oxo-1H-quinoline-3-carboxamide], the Emax was 25 to 100%.

As for `Cc1ccccc1NC(=O)c1c[nH]c2ccccc2c1=O` [Compound 459, N-(o-tolyl)-4-oxo-1H-quinoline-3-carboxamide], the Emax lay within 25 to 100%.

`CCCCOC(=O)NCC(C)(C)c1ccc(NC(=O)c2c[nH]c3ccccc3c2=O)cc1` [Compound 460, [2-methyl-2-[4-[(4-oxo-1H-quinolin-3-yl)carbonylamino]phenyl]-propyl]aminoformic acid butyl ester]: the Emax was 25 to 100%.

Regarding `O=C(Nc1ccccc1-c1ccccc1)c1c[nH]c2ccccc2c1=O` [Compound 461, 4-oxo-N-(2-phenylphenyl)-1H-quinoline-3-carboxamide], the Emax was in the range of 25 to 100%.

Regarding `CCCc1ccc(NC(=O)c2c[nH]c3ccccc3c2=O)cc1N(C)C` [Compound 462, N-(3-dimethylamino-4-propyl-phenyl)-4-oxo-1H-quinoline-3-carboxamide], the half-maximal effective concentration (EC50) was less than 10 µM and the Emax was 25 to 100%.

Regarding `CCc1ccc(NC(=O)c2c[nH]c3ccccc3c2=O)cc1` [Compound 463, N-(4-ethylphenyl)-4-oxo-1H-quinoline-3-carboxamide], the EC50 was less than 10 µM and the Emax is 25 to 100%.

`CC(C)(C)c1cc(C(C)(C)C)c(NC(=O)c2c[nH]c3cccc(O)c3c2=O)cc1O` [Compound 464, 5-hydroxy-N-(5-hydroxy-2,4-ditert-butyl-phenyl)-4-oxo-1H-quinoline-3-carboxamide]: the Emax fell in the range of 25 to 100%.

Turning to `CC(C)(C)OC(=O)NCc1cc(NC(=O)c2c[nH]c3ccccc3c2=O)ccc1C(C)(C)C` [Compound 465, [5-[(4-oxo-1H-quinolin-3-yl)carbonylamino]-2-tert-butyl-phenyl]methylaminoformic acid tert-butyl ester], the Emax was 25 to 100%.

For the compound `CC(C)c1cccc(C(C)C)c1NC(=O)c1c[nH]c2ccccc2c1=O` [Compound 466, N-(2,6-diisopropylphenyl)-4-oxo-1H-quinoline-3-carboxamide], the Emax lay within 25 to 100%.

Turning to `O=C(Nc1ccc2c(c1)CCO2)c1c[nH]c2ccccc2c1=O` [Compound 467, N-(2,3-dihydrobenzofuran-5-yl)-4-oxo-1H-quinoline-3-carboxamide], the Emax was less than 25%.

Turning to `Cn1cc(C(=O)Nc2ccccc2)c(=O)c2ccccc21` [Compound 468, 1-methyl-4-oxo-N-phenyl-1H-quinoline-3-carboxamide], the Emax is less than 25%.

In the case of `O=C(Nc1ccccc1-c1ccccc1)c1c[nH]c2cc(C(F)(F)F)ccc2c1=O` [Compound 469, 4-oxo-N-(2-phenylphenyl)-7-(trifluoromethyl)-1H-quinoline-3-carboxamide], the Emax was 25 to 100%.

Consider `O=C(Nc1ccc(Sc2ccccc2)cc1)c1c[nH]c2ccccc2c1=O` [Compound 470, 4-oxo-N-(4-phenylsulfanylphenyl)-1H-quinoline-3-carboxamide], for which the Emax lay in the range of 25 to 100%.

In the case of `CCCc1ccc(NC(=O)OC)cc1NC(=O)c1c[nH]c2ccccc2c1=O` [Compound 471, [3-[(4-oxo-1H-quinolin-3-yl)carbonylamino]-4-propyl-phenyl]aminoformic acid methyl ester], the Emax was 25 to 100%.

For the compound `CCOC(=O)Nc1ccc(CC)c(NC(=O)c2c[nH]c3ccccc3c2=O)c1` [Compound 472, [4-ethyl-3-[(4-oxo-1H-quinolin-3-yl)carbonylamino]phenyl]aminoformic acid ethyl ester], the EC50 is less than 10 µM and the Emax was in the range of 25 to 100%.

Turning to `CC(C)n1cc(C(=O)Nc2ccccc2C(C)(C)C)c(=O)c2ccccc21` [Compound 473, 1-isopropyl-4-oxo-N-(2-tert-butylphenyl)-1H-quinoline-3-carboxamide], the Emax lay in the range of 25 to 100%.

On to `Cn1c(=O)oc2ccc(NC(=O)c3c[nH]c4ccccc4c3=O)cc21` [Compound 474, N-(3-methyl-2-oxo-3H-benzooxazol-5-yl)-4-oxo-1H-quinoline-3-carboxamide], for which the Emax was less than 25%.

On to `CC(C)(C)c1cc(C#N)c(NC(=O)c2c[nH]c3ccccc3c2=O)cc1O` [Compound 476, N-(4-tert-Butyl-2-cyano-5-hydroxyphenyl)-1,4-dihydro-4-oxoquinoline-3-carboxamide], for which the Emax fell in the range of 25 to 100%.

Turning to `O=C(Nc1ccc(F)cn1)c1c[nH]c2ccccc2c1=O` [Compound 477, N-(5-fluoro-2-pyridyl)-4-oxo-1H-quinoline-3-carboxamide], the Emax was less than 25%.

In the case of `CC(C)(C)c1c[nH]c2cc(NC(=O)c3c[nH]c4ccccc4c3=O)ccc12` [Compound 478, 4-oxo-N-(3-tert-butyl-1H-indol-6-yl)-1H-quinoline-3-carboxamide], the Emax lay in the range of 25 to 100%.

Regarding `COc1cccc2[nH]cc(C(=O)Nc3ccc4cc[nH]c4c3)c(=O)c12` [Compound 479, N-(1H-indol-6-yl)-5-methoxy-4-oxo-1H-quinoline-3-carboxamide], the Emax lay within 25 to 100%.

Take `CCn1cc(C(=O)Nc2ccccc2)c(=O)c2cc(OC)ccc21` [Compound 480, 1-ethyl-6-methoxy-4-oxo-N-phenyl-1H-quinoline-3-carboxamide]: the Emax is less than 25%.

In the case of `O=C(Nc1ccc2ccccc2c1)c1c[nH]c2ccccc2c1=O` [Compound 481, N-(2-naphthyl)-4-oxo-1H-quinoline-3-carboxamide], the Emax lay in the range of 25 to 100%.

Consider `CCOC(=O)NC1CCCc2ccc(NC(=O)c3c[nH]c4ccccc4c3=O)cc21` (stereo not shown) [Compound 482, [7-[(4-Oxo-1H-quinolin-3-yl)carbonylamino]tetralin-1-yl]aminoformic acid ethyl ester], for which the Emax lay within 25 to 100%.

In general, EC50 refers to the midpoint of the concentration-response curve.
